Test results as given in US20080075750A1, “METHODS FOR PRODUCING THREE-DIMENSIONAL TISSUE-ENGINEERED CARDIAC CONSTRUCTS AND USES REGARDING SAME” (The Nemours Foundation, priority 2001, published 2008).

What was measured:
[1] = system: Primary NNRCCs (neonatal rat cardiac cells), 2D culture dishes and 3D constructs; test: Spontaneous contractile (beat) frequency of cardiac cell cultures before and after exposure to adrenergic/cholinergic agents; type: cell-based; settings: for Propranolol responders: responding cultures of all cultures; for Postproprandolol beat frequency: three minutes after pharmacological dose, responders, 37° C.; for decrease in beat frequency post propranolol: versus baseline of responders
Protocol: Primary NNRCCs in SFHM form spontaneously and rhythmically contracting cultures within the first twenty hours after plating in monolayer cultures. To directly assess contractility and the modulation of contractile activity by […], the effects of propranolol, which is a beta-blocker on the frequency of spontaneous contraction in 2D and 3D preparation were evaluated. 3D cardiac cell cultures were prepared in transparent Teflon® culture bags that were slowly rotated to quiescently suspend the cells and HFN-coated polystyrene beads. Cultures were observed on a 37° C. microscope stage and the spontaneous contractile frequency of the constructs was determined. Samples were then exposed to a pharmacological dose of propranolol without disturbing the field of view on the microscope stage. Three minutes later, the contractile frequency was reassessed.
As expected, both culture types were spontaneously contractile. In standard (2D) preparations entire culture wells beat in unison. In the 3D constructs, entire aggregates of cells in physical contact beat in unison. […]

[2] = system: bioreactor cultured neonatal rat cardiac cells on microcarriers (BMP 2 function); test: Formation of tissue-like aggregates in bioreactor cardiac cultures with Noggin (BMP antagonist) in the media; type: cell-based
Protocol: 2 day old neonatal rat pups were halothane anesthetized and cardioectomitized. The isolated hearts were minced and subjected to about 16 hour digestion by about […] trypsin, followed by about […] collagenase II digestion and cell straining to completely separate individual cells. The cells were then counted on hemocytometer with trypan blue staining aid resuspended in modified serum-free cardiac media (SM3+) at a density of about 1×10^6 total cells/ml. Cells were then mixed with fibronectin-coated Nunclon plastic microcarriers at […] and infused into PTFE bags for bioreactor rotation, with the remainder plated onto fibronectin-coated six-well Nunclon plastic plates at a density of about 2×10^6 cells/well as a control population. Feeding was performed at about 24 hours post-inoculation to remove unattached cells, and about every 3 days thereafter. Samples were collected prior to culture start (Day 0) and at varying intervals thereafter. For the Noggin treatment protocol, about. 0.4 μg/ml Noggin (Pepro Tech, London, UK) in about 10 mM acetic acid was added to media just prior to inoculation and to media used for feeding, with control using untreated media.
Moreover, Noggin was used to assess the role of BMP2 in the formation of tissue-like aggregates in bioreactors. Noggin is a secreted factor which acts as an antagonist for members of the BMP family of proteins (i.e., in solution, Noggin will bind BMP 2 and prevent BMP 2 from binding to its receptor). Thus, adding an effective amount of Noggin to the culture media may suppress BMP 2 function. […] The control bioreactor cardiac cultures formed large tissue-like aggregates surrounding multiple microcarriers complete with substantial thick structure formation visible between the microcarriers.

Molecule: CC(C)NCC(O)COc1cccc2ccccc12 (centres unmarked) [Propranolol, propranolol]
- Propranolol responders ([1]; 2D/culture dishes): (19 of 25)
- Postproprandolol beat frequency ([1]; 2D/culture dishes): 130.86 (±10.23)
- decrease in beat frequency post propranolol ([1]; 2D/culture dishes): 30% decrease
- Propranolol responders ([1]; 3D/HARVs): (6 of 12)
- Postproprandolol beat frequency ([1]; 3D/HARVs): 34.59 (±3.842)
- decrease in beat frequency post propranolol ([1]; 3D/HARVs): 34% decrease
- effect on beat frequency ([1]; both 3D and 2D conformations): decrease in beat frequency in a subset of cultures

Molecule: CN1[C@@H]2CC[C@H]1C[C@@H](OC(=O)C(CO)c1ccccc1)C2 (some centres unmarked) [atropine]
- alteration of baseline contractile frequency ([1]; cholinergic antagonist): did not result in an alteration of baseline contractile frequency

B1: Noggin: secreted factor which acts as an antagonist for members of the BMP family of proteins (Pepro Tech) (protein, UniProt Q13253 28-232, looked up)
Noggin: QHYLHIRPAPSDNLPLVDLIEHPDPIFDPKEKDLNETLLRSLLGGHYDPGFMATSPPEDRPGGGGGAAGGAEDLAELDQLLRQRPSGAMPSEIKGLEFSEGLAQGKKQRLSKKLRRKLQMWLWSQTFCPVLYAWNDLGSRFWPRYVKVGSCFSKRSCSVPEGMVCKPSKSVHLTVLRWRCQRRGGQRCGWIPIQYPIISECKCSC
- aggregate size (connected microcarrier supports) ([2]; Noggin treated bioreactor culture, 6 days post inoculation): 2-3 microcarrier supports
- contractile activity / myocyte interaction ([2]; Noggin-treated cultures, about 8 hour post-inoculation): no disruption in myocyte interaction or contractile apparatus reformation
- tissue-like aggregate formation ([2]; about 0.4 μg/ml Noggin in media, bioreactor culture): only small thin aggregates
